In patent US10793543B2, “Selective C-KIT kinase inhibitor” (PRECEDO PHARMACEUTICALS CO., LTD, priority 2016, dated 2020):

Legend:
[1] = tested on: GIST-T1 cells; assay: Cell cycle distribution by flow cytometry, GIST-T1; assay type: cell-based, human; settings: GIST-T1, treated 24 hours
[2] = tested on: GIST-T1 cells; assay: Cancer cell proliferation, CCK-8, GIST-T1; assay type: cell-based; settings: Homo sapiens, GISTT1, GIST-T1, KIT WT, 72 hours
Description: (§1) In the present example, the following cells were used: chronic myelogenous leukemia cells K562 (expressing P210 Bcr-Abl mutant gene), human megakaryocytic leukemia cells MEG-01 (expressing P210 Bcr-Abl mutant gene), human peripheral blood basophilic leukemia cells Ku812 (expressing Bcr-Abl mutant gene) (all above cells purchased from ATCC, USA), human gastrointestinal stromal tumor cell lines GIST-T1 cells (expressing wild-type C-KIT gene) (purchased from Cosmo Bio Co., Ltd., Japan), human gastrointestinal stromal tumor cell lines GIST-882 cells (expressing wild-type C-KIT gene) (presented by the Professor Gray Lab, Dana-Farber Cancer Institute, Harvard University, USA), mouse pro-B cells BaF3 (purchased from ATCC, USA).
(§2) The cells were incubated for 72 hours, and then the number of viable cells was quantified with a microplate reader by using CCK-8 Cell Viability Assay Kit (purchased from Bestbio Company, Shanghai, China) (CCK-8 can be reduced by dehydrogenase in living cells to a highly water-soluble yellow formazan product, and the amount of formazan produced is proportional to the number of living cells).

[3] = tested on: phosphorylation of C-KIT and pathway proteins in GIST-T1 cells; assay: Effects on cell signaling pathways (phosphorylation), GIST-T1; assay type: cell-based, human; settings: GIST-T1, 0.1 μM, 2 hours
[4] = tested on: gastrointestinal stromal tumor cell lines GIST-882; assay: Mouse tumor model of GIST-882 cells; assay type: in vivo; settings: GIST-882 model; for tumor inhibition rate: Day 21 after administration
Procedure: 1. 4-6 week-old Bal b/c female mice were purchased from Shanghai SLAC Experimental Animal Co., Ltd., and were raised in a SPF-level laboratory. Drinking water and padding were both subjected to aseptic processing via high-pressure disinfection, and all operations of the mice were conducted under aseptic conditions;
2. About 5×10^6 gastrointestinal stromal tumor cell lines GIST-T1 or GIST-882 (purchased from ATCC) were respectively injected subcutaneously at left side back of all mice at Day 0;
5. Mice were sacrificed on Day 36 (for GIST-882 mouse model) or Day 43 (GIST-T1 mouse model) and subcutaneous tumors were taken out and weighed for comparison;
6. Tumor tissue specimens were prepared into protein lysate samples for further usage;
7. Growth trend of subcutaneous tumors from Day 16 to Day 43 was derived, and tumor volume was calculated as length×width×width/2 mm^3.

[5] = tested on: Tel-cKit/V654A-BaF3 cells (KIT V654A); assay: Cell proliferation, CCK-8, Tel-cKit/V654A-BaF3; assay type: cell-based; settings: Mus musculus, 72 hours
Description: (§3) In addition, in the present example, further uses: mouse P210/BaF3 (stably expressing P210 Bcr-Abl mutant gene), mouse Tel-ABL-BaF3 (stably expressing wild-type ABL kinase), mouse Tel-cKit-BaF3 (stably expressing C-KITwild-type kinase), mouse Tel-cKit/V559D-BaF3 (stably expressing C-KIT V559D mutant kinase), mouse Tel-cKit/V559D/V654A-BaF3 (stably expressing C-KIT V559D/V654A mutant kinase), mouse Tel-cKit/N822K-BaF3 (stably expressing C-KIT N822K mutant kinase), mouse Tel-cKit/V654A-BaF3 (stably expressing C-KIT V654A mutant kinase), mouse Tel-cKit/L567P-BaF3 (stably expressing C-KIT L567P mutant kinase), mouse Tel-cKit/T670I-BaF3 (stably expressing C-KIT T670I mutant kinase), mouse Tel-PDGFRα-BaF3 (stably expressing PDGFRα kinase), mouse Tel-PDGFRβ-BaF3 (stably expressing PDGFRβ kinase), mouse Tel-VEGFR2-BaF3 (stably expressing VEGFR2 kinase), mouse Tel-RET-BaF3 (stably expressing RET kinase). The above cell lines were all constructed by our laboratory according to the following method: the kinase region sequences of human P210 Bcr-Abl, ABL, C-KIT, C-KIT V559D, C-KIT V559D/V654A, C-KIT N822K, C-KIT V654A, C-KIT L567P, C-KIT T670I, PDGFRα, PDGFRβ, VEGFR2, RET were amplified respectively by PCR, inserted respectively into MSCV-Puro vectors harboring N-terminal TEL fragment and/or NPM fragment and/or TPR fragment (Clontech), then the vectors were stably transfected into mouse BaF3 cells by retrovirus methods and growth factor IL-3 was removed, eventually obtaining cell lines that are transferred protein (P210 Bcr-Abl, ABL, C-KIT, C-KIT V559D, C-KIT V559D/V654A, C-KIT N822K, C-KIT V654A, C-KIT L567P, C-KIT T670I, PDGFRα, PDGFRβ, VEGFR2, RET)-dependent.
as §2

[6] = tested on: Tel-cKit/L576P-BaF3 cells (KIT L576P); assay: Cell proliferation, CCK-8, Tel-cKit/L576P-BaF3; assay type: cell-based; settings: Mus musculus, 72 hours
Description: as §3, §2

[7] = tested on: cells expressing wild-type C-KIT kinase; assay: Cell proliferation, C-KIT cells; assay type: cell-based; settings: cells expressing wild-type C-KIT kinase, summary of Table 2
Description: as §1, §3, §2

[8] = tested on: Ku812 cells (Bcr-Abl); assay: Cancer cell proliferation, CCK-8, Ku812; assay type: cell-based; settings: Homo sapiens; Ku812, Bcr-Abl, 72 hours, CCK-8; read-out: GI50
Description: as §1, §2

[9] = tested on: GIST-T1 cells; assay: Apoptosis, PARP and Caspase 3 cleavage by Western Blot, GIST-T1; assay type: cell-based, human; settings: GIST-T1, 0.3 μM, 48 hours
Description: The effects of different concentrations of drugs on protein cleavage of DNA repairase poly(ADP-ribose) polymerase (PARP) and Caspase (cysteinyl aspartate-specific proteinase) 3 at different periods of time were examined by Western Blot.

[10] = tested on: Tel-cKit-BaF3 cells (KIT WT); assay: Cell proliferation, CCK-8, Tel-cKit-BaF3; assay type: cell-based; settings: Mus musculus, 72 hours
Description: as §3, §2

[11] = tested on: Tel-cKit/V559D/V654A-BaF3 cells (KIT V559D/V654A); assay: Cell proliferation, CCK-8, Tel-cKit/V559D/V654A-BaF3; assay type: cell-based; settings: Mus musculus, 72 hours
Description: as §3, §2

[12] = tested on: P210/BaF3 cells (P210 Bcr-Abl); assay: Cell proliferation, CCK-8, P210/BaF3; assay type: cell-based; settings: Mus musculus; P210/BaF3, Bcr-Abl, 72 hours, CCK-8; read-out: GI50
Description: In addition, in the present example, further uses: mouse P210/BaF3 (stably expressing P210 Bcr-Abl mutant gene), mouse Tel-ABL-BaF3 (stably expressing wild-type ABL kinase), mouse Tel-cKit-BaF3 (stably expressing C-KITwild-type kinase), mouse Tel-cKit/V559D-BaF3 (stably expressing C-KIT V559D mutant kinase), mouse Tel-cKit/V559D/V654A-BaF3 (stably expressing C-KIT V559D/V654A mutant kinase), mouse Tel-cKit/N822K-BaF3 (stably expressing C-KIT N822K mutant kinase), mouse Tel-cKit/V654A-BaF3 (stably expressing C-KIT V654A mutant kinase), mouse Tel-cKit/L567P-BaF3 (stably expressing C-KIT L567P mutant kinase), mouse Tel-cKit/T670I-BaF3 (stably expressing C-KIT T670I mutant kinase), mouse Tel-PDGFRα-BaF3 (stably expressing PDGFRα kinase), mouse Tel-PDGFRβ-BaF3 (stably expressing PDGFRβ kinase), mouse Tel-VEGFR2-BaF3 (stably expressing VEGFR2 kinase), mouse Tel-RET-BaF3 (stably expressing RET kinase). […]
as §2

[13] = tested on: GIST-882 cells; assay: Cancer cell proliferation, CCK-8, GIST-882; assay type: cell-based; settings: Homo sapiens, GIST882, GIST-882, KIT WT, 72 hours
Description: as §1, §2

Cc1ccc(NC(=O)c2cccc(C(F)(F)F)c2)cc1OC1CCN(C(=O)c2ccncc2)CC1 [Compound 4]
effect on cell cycle [1]: significantly blocked in the GO-G1 phase | GI50 [2]: 0.021 µM | phosphorylation of C-KIT oncogenic protein [3]: significantly inhibiting | phosphorylation of proteins such as Stat5, AKT, ErK, S6K, S6, PDGFRα [3]: significant inhibitory effects | tumor inhibition rate ([4]; 50 mg/kg oral daily): 44% | tumor inhibition rate ([4]; 100 mg/kg oral daily): 58% | effect on body weight of mice ([4]; oral daily dosing): no effect on the body weight of mice | GI50 [5]: 1.03 µM | GI50 [6]: 0.148 µM | GI50 [7]: < 0.5 µM | GI50 [8]: 6.71 µM | cleavage of PARP and Caspase 3 [9]: significant cleavage | GI50 [10]: 0.19 µM | GI50 [11]: 1.05 µM | GI50 [12]: 6.05 µM | GI50 [13]: 0.043 µM
